# Test results taken from US8647824B2, “Microbial reductive dehalogenation of vinyl chloride” (The Board of Trustees of the Leland Stanford Junior …, priority 2004, dated 2014).
# Columns and labels:
# [1] = tested on: Victoria mixed culture, containing strain VS; conditions: traditional method of cell counting; cited from earlier work
# [2] = tested on: highly enriched culture of strain VS; conditions: previously determined; cited from earlier work
# [3] = tested on: Dehalococcoides ethenogenes strain 195; experiment: Batch dechlorination, D. ethenogenes strain 195 culture; assay type: cell-based; conditions: cultures supplied with VC or DCE
# Excerpt: Stock cultures. The Victoria mixed culture, containing strain VS, was maintained in a closed continuously stirred tank reactor (CSTR) as previously described. A VC enrichment of this culture, maintained over 5 years, was also used in these investigations. Liquid cultures of the three other cultures evaluated (Pinellas, KB-1/VC, and Dehalococcoides ethenogenes strain 195) were kept in anaerobic bottles, stored in an anaerobic chamber (10% H2, 10% CO2, 80% N2). The bottles were amended with TCE (1-3 μL neat liquid), VC (250 μL gas), and PCE (1-3 μL neat liquid) being added to each, respectively, approximately every two weeks.
# Batch studies. For the experimental portion of this research, two studies were undertaken, one a comparative VC growth study, and the other a comparative growth and substrate utilization study with different chlorinated ethenes. These studies compared the dechlorination abilities of Dehalococcoides ethenogenes strain 195 and the Dehalococcoides-like microorganisms in the three mixed cultures (Victoria, KB-1/VC, and Pinellas).
# For the first study, a VC enriched inoculum was first developed for each of the three mixed cultures. Here, bottles (120 mL) were filled with 60 mL of anaerobic media in an anaerobic chamber as previously described, and inoculated with 200 μL of each stock culture. Gaseous VC (99.5%) was added with a gas tight syringe (200 μL). […]
# [4] = biological target: T1, TCE-reductive dehalogenase (TceA) (Dehalococcoides mccartyi, UniProt Q3ZAB8); conditions: TceA of D. ethenogenes 195; cited from earlier work
# T1 sequence (Q3ZAB8 43-554): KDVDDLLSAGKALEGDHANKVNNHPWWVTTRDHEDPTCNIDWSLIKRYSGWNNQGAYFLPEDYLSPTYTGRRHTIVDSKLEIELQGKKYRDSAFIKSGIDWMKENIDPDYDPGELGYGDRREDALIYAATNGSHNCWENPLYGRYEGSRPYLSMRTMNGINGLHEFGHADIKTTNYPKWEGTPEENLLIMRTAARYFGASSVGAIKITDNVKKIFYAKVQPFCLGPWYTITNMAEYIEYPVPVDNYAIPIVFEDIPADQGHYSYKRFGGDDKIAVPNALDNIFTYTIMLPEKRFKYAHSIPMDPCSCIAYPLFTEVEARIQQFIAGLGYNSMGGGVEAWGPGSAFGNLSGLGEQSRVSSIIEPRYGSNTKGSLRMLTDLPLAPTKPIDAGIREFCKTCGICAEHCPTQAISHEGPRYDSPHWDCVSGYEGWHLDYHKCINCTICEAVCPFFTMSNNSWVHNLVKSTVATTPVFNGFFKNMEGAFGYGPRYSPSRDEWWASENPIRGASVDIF
smiles,measurement,setting,value
"C=CCl [VC, vinyl chloride]",growth rate determined previously by cell counting,[1],0.4 day⁻¹
same,strain VS maximum VC utilization rate,[2],7.8×10^−10 μmol Cl^− (cell·d)^−1
same,dechlorination by D. ethenogenes strain 195,[3],did not dechlorinate
same,VC-reduction rate relative to activity of TCE- and cDCE-reduction,[4],less than 1%
